Measured values reported in patent US4913907A, “Porphycene anti-cancer agents and treatment methods” (Cytopharm, Inc., priority 1988, dated 1990).
Where two headings read alike, the source gives them in different places.

Legend:
[1] = system: MS-2 fibrosarcoma; assay: Phototherapy of tumor-bearing mice, tumor response; type: in vivo, Female Balb/c mice
Description: By the seventh day after transplantation, the tumors had reached a diameter of approximately 0.8 cm.
(§1) Each mouse was intravenously injected with 2 mg./kg. of 2,7,12,17-tetra-n-propylporphycene (TPP) incorporated into small umilamellar liposomes of dipalmitoyl-phosphatidylcholine (DPPC), prepared according to the procedures of Example 2, on the seventh day after transplantation. At this time the diameter of the tumor was approximately 0.8 cm.
(§2) 24 hours after TPP injection, the tumor area was exposed to 600-690 nm. light isolated by optical filtration from the emission of a 250 W quartz-halogen lamp through a set of optical filters (Teclas, Lugano, Switzerland). The light beam was focused into a bundle of optical fibers having an external diameter of 6 mm. The tip of the fiber was kept at a distance of 1 cm from the tissue surface. The lamp was operated at a dose-rate of 230 mW/cm^2, and the total delivered light dose was 150 J/cm^2 or 300 J/cm^2.

[2] = system: normal skin; assay: Phototherapy, photoinduced damage of irradiated normal skin; type: in vivo, Female Balb/c mice
Description: as §1, §2
An equal area of normal skin on the left hind leg was irradiated in each mouse immediately after tumor irradiation using an identical protocol.

[3] = Tissue analysis: recovery of TPP from serum and tissues after injection; type: in vivo, mice; conditions: 2 mg/kg; for concentration at 3 h / concentration at 24 h: mouse, iv, average of 6 mice, maximum deviation ±20%; for concentration at 3 h: 3 hours after injection; for concentration at 24 h: 24 hours after injection
Description: At each of 3 hours and 24 hours after injection, six mice were sacrificed by exposure to ether vapor, and the serum or specific tissue were removed. About 2 mL of blood was taken intracardially and centrifuged for 15 minutes at 3,000 rpm to remove the erythrocytes. The serum was collected, diluted with 2% aqueous SDS and assayed for TPP content spectrophotofluorimetrically (λex =560 nm). The fluorescence emitted in the 580-740 nm interval was converted into TPP concentration by interpolation with a calibration plot.
The tumor and predetermined normal tissues were removed, washed twice with PBS, and a weighed amount of tissue (approximately 200 mg) was finely minced and homogenized in a Potter vessel with 4 mL chloroform. The dispersion was centrifuged at 3,000 rpm for 15 minutes; the supernatant was collected and its TPP content was estimated spectrophotofluorimetrically as described above. Rehomogenization of the sediment under the same conditions gave less than 3% of the TPP extracted in the original step. […]
The recovery of TPP from serum and various tissues of the tumor-bearing mice at 3 hours and 24 hours after injection are shown in Table 1. The samples from each animal were analyzed separately, and are table values represent the average recovery data from the single tissues of 6 mice. The maximum deviation from the reported values was ±20%.

[4] = Distribution and clearance in a mouse model (statement in the description); type: in vivo
[5] = cited from earlier work
[6] = Solubility; type: physicochemical
[7] = 2 mg/kg i.v., 300 J/cm^2 at 24 hours after TPP injection
[8] = brain, read-out: Recovery, brain
[9] = liver, read-out: Recovery, liver
[10] = muscle, read-out: Recovery, muscle
[11] = tumor, read-out: Recovery, tumor

CCCC1=Cc2nc1ccc1[nH]c(cc1CCC)c1nc(ccc3[nH]c2cc3CCC)C(CCC)=C1 [TPP, 2,7,12,17-tetra-n-propylporphycene]
onset of tumor necrosis ([1]; 2 mg/kg i.v. in DPPC liposomes, 300 J/cm^2 of 600-690 nm light at 24 hours after TPP injection): massive tumor necrosis
tumor necrosis ([1]; 2 mg/kg i.v., 150 J/cm^2 of red light at 24 hours after TPP injection): equally deep necrosis, however less extensive
eschar formation complete within [1, 7]: ≤ 3 days
time until depth of necrosis reached bone [1, 7]: about 7 days
erythema, disappearance ([2]; irradiated TPP-treated mice): disappeared within about one week
photoinduced damage at the level of the normal skin ([2]; irradiated TPP-treated mice, most animals, mainly erythema): developed some photoinduced damage at the level of the normal skin
erythema, diameter ([2]; irradiated TPP-treated mice, generally): less than 0.3 cm
photosensitivity at the irradiated normal skin ([2]; left hind leg, identical irradiation protocol): Some photosensitivity was also observed
concentration at 3 h [3, 8]: < 10 ng/g
concentration at 24 h [3, 8]: < 10 ng/g
concentration at 3 h ([3]; kidneys, read-out: Recovery, kidneys): 1250 ng/g
concentration at 3 h [3, 9]: 13000 ng/g
concentration at 24 h [3, 9]: 11100 ng/g
concentration at 3 h [3, 10]: 140 ng/g
concentration at 24 h [3, 10]: 90 ng/g
concentration at 24 h ([3]; serum, read-out: Recovery, serum): 25600 ng/mL
concentration at 3 h ([3]; skin, read-out: Recovery, skin): 290 ng/g
concentration at 24 h ([3]; skin, read-out: Recovery, skin): 440 ng/g
concentration at 24 h ([3]; spleen, read-out: Recovery, spleen): 2940 ng/g
concentration at 3 h [3, 11]: 690 ng/g
concentration at 24 h [3, 11]: 1500 ng/g
recovery from the tumor ([3]; tumor tissue, time not stated): approximately 1 μg/g
tumor uptake as compared to skin or muscle tissue ([4]; 24 hours post-injection): concentrate preferentially in tumor tissue as compared to skin or muscle tissue
drug clearance route ([4]; mouse model): via the liver rather than by the kidneys
uptake by the brain ([4]; mouse model): little or no porphycene uptake by the brain
absorption above 620 nm [5]: high absorption above 620 nm

C1=Cc2nc1ccc1ccc([nH]1)c1nc(ccc3ccc2[nH]3)C=C1 [porphycene]
solubility in water and pharmaceutically suitable solvents [6]: not soluble in water and pharmaceutically suitable solvents
absorption above 620 nm [5]: high absorption above 620 nm
